In patent US12448383B2, “Compounds and methods for treatment of viral infections” (priority 2022, dated 2025):

Legend:
[1] = system: Caco-2 cells (clone C2BBe1); experiment: CACO-2 permeability; assay type: in vitro ADME; parameters: unit not given here; settings: for DM Caco2 A to B: apical to basolateral, donor pH 6.5, receiver pH 7.4; for DM Caco2 B to A: basolateral to apical
Description: Pre-plated Caco-2 cells (clone C2BBel) were obtained from Sigma-Aldrich, Inc. (Atlanta, GA). Cell monolayers were grown to confluence on collagen-coated, microporous, polycarbonate membranes in 24-well transwell plates for 21 days. The permeability assay buffer in donor wells was Hanks' balanced salt solution (HBSS) containing 10 mM HEPES and 15 mM glucose at a pH of 6.5 containing 200 μM BNPP. The receiver wells used HBSS buffer containing 10 mM HEPES and 15 mM glucose at a pH of 7.4 and supplemented with 1°% BSA. After an initial equilibration with transport buffer, TEER values were read to test membrane integrity. The experiment was started by the addition of buffers containing test compounds, 200 μl and 1000 μl in the apical and basolateral chamber, respectively. At 0- and 2-hour post dose, 10 μL was sampled from donor compartment and was immediately diluted in 190 μL of 20% methanol. At 1 and 2 hours post dose, 100 μl of solution was taken from the receiver compartments and was immediately diluted in 100 μl of 20% methanol. Removed buffer was replaced with fresh buffer and a correction was applied to all calculations for the removed material. Each compound was tested in 2 separate replicate wells for each condition. All samples were then extracted with 400 μl 100% acetonitrile with internal standard to precipitate protein. Cells were dosed on the apical or basolateral side to determine forward (A to B) and reverse (B to A) permeability. To test for non-specific binding and compound instability, the total amount of drug was quantitated at the end of the experiment and compared to the material present in the original dosing solution as a percent recovery. […] Samples were analyzed by LC-MS/MS.

[2] = system: SARS Coronavirus 2 recombinant with NanoLuc (SARS-CoV2-NLuc) in A549-hACE2 cells; experiment: organism not typed; assay type: cell-based; settings: 48 h; read-out: SARS-CoV2 EC50
[3] = system: Respiratory syncytial virus recombinant with luciferase (RSV-Luc5) in Normal Human Bronchial Epithelial (NHBE) cells; experiment: microbe, parasite or virus in culture; assay type: cell-based; settings: 72 h, read-out: RSV NHBE EC50
[4] = CC50 MT4 cytotoxicity (Cell-Titer Glo); assay type: cell-based; settings: human
Description: Cytotoxicity of the compounds was determined in uninfected cells using the cell viability reagent in a similar fashion as described before for other cell types (Cihlar et al., Antimicrob Agents Chemother. 2008, 52(2):655-65). HEp-2 (1.5×10^3 cells/well) and MT-4 (2×10^3 cells/well) cells were plated in 384-well plates and incubated with the appropriate medium containing 3-fold serially diluted compound ranging from 15 nM to 100,000 nM. Cells were cultured for 4-5 days at 37° C. Following the incubation, the cells were allowed to equilibrate to 25° C., and cell viability was determined by adding Cell-Titer Glo viability reagent. The mixture was incubated for 10 min, and the luminescence signal was quantified using an Envision plate reader. Untreated cell and cells treated at 2 μM puromycin (Sigma, St. Louis, MO) serve as 100% and 0% cell viability control, respectively. The percent of cell viability was calculated for each tested compound concentration relative to the 0% and 100% controls and the CCso value was determined by non-linear regression as a compound concentration reducing the cell viability by 50%.

[5] = GI S9 stability - no PMSF; assay type: in vitro ADME; parameters: GIS9-HUMAN-NoPMSF T1/2: unit: min; settings: human intestinal S9, PMSF-free; for half-life at 2 µM: pH 7.4, read-out: GIS9-HUMAN-NoPMSF T1/2
Description: Duplicate aliquots of test compound or positive control substrate (GS-7340) were added to S9 stock diluted with 100 mM phosphate buffered saline, pH 7.4, to obtain a protein concentration of 1.0 mg/mL. The S9 metabolic reactions were initiated by the addition of the substrates to the S9 reaction mixture to a final concentration of 2 μM. At 0, 10, 20, 30, 60 and 120 min, […] aliquots of the reaction mixture were transferred to plates containing […] of IS/Q solution. After quenching, the plates were centrifuged at 3000 g for 30 minutes, and 150 μL aliquots of each supernatant were diluted with 150 μL water. Aliquots ([…]) of the diluted supernatant were analyzed on a Thermo Q-Exactive mass spectrometer as described below. GI S9 Stability—No phenylmethylsulfonyl fluoride (PMSF): Similar to the procedure described above, test compounds were incubated at 2 μM with 1 mg/mL PMSF-free Intestinal S9 fractions. Samples are removed at 6 time points over the course of a 120 min experiment and the parent compound disappreance and reference compound A formation is determined by mass spectrometry.
Example K: Liquid Chromatography/Mass Spectroscopy Methods for S9 and Plasma Stability
Quantification of test compounds, Reference Compound A (S9 stability assay nucleoside metabolite), and controls was performed by analyte/internal standard peak area ratio (PAR) values measured on a Thermo Q-Exactive mass spectrometer coupled to a Dionex UltiMate 3000 HPLC with a Leap Technologies HTC PAL autosampler. The column used for analysis of test compounds and Reference Compound A was a Waters Acquity BEH C18 ([…] particle size, 2.1′50 mm). The column used for control (GS-7340) was a Thermo Hypersil GOLD ([…] particle size, 2.1′50 mm). Mobile phase A consisted of 0.1% (v/v) formic acid in water. Mobile phase B consisted of 0.1% (v/v) formic acid in acetonitrile. Elution of analytes was achieved by a series of linear gradients of acetonitrile in water containing 0.1°(v/v) formic acid. The mass spectrometer was calibrated on a weekly basis and mass tolerance of 5 ppm was used.

Plasma stability = assay type: in vitro ADME; parameters: unit not given here; settings: 37° C., 2 μM substrate
Description: At 0.05, 0.5, 1, 2, 3 and 4 hr, […] aliquots of the reaction mixture were transferred to plates containing […] of IS/Q quenching solution. After quenching, the plates were centrifuged at 3000 g for 30 minutes, and 150 μL supernatant was diluted with 150 μL water. Aliquots ([…]) of the diluted supernatant were analyzed on a Thermo Q-Exactive mass spectrometer as described below.
Mobile phase A consisted of 0.1% (v/v) formic acid in water. Mobile phase B consisted of 0.1% (v/v) formic acid in acetonitrile. Elution of analytes was achieved by a series of linear gradients of acetonitrile in water containing 0.1°(v/v) formic acid. The mass spectrometer was calibrated on a weekly basis and mass tolerance of 5 ppm was used.

CC(=O)OC[C@H]1O[C@@](C#N)(c2ccc3c(N)ncnn23)[C@H](OC(C)=O)[C@@H]1OC(C)=O [3rd Reference Ester Compound]
DM Caco2 A to B [1]: 5.07
DM Caco2 B to A [1]: 8.91

N#C[C@@]1(c2ccc3c(N)ncnn23)O[C@H](COC(=O)OC2CCC2)[C@@H](O)[C@H]1O [Compound 37, ((2R,3S,4R,5R)-5-(4-aminopyrrolo[2,1-f][1,2,4]triazin-7-yl)-5-cyano-3,4-dihydroxytetrahydrofuran-2-yl)methyl cyclobutyl carbonate]
EC50 [2]: 3.15 µM
EC50 [3]: 4.75 µM
CC50 [4]: > 50 µM
half-life at 2 µM [5]: 35.3 s
STA Human Plasma 37 (Plasma stability): 53
DM Caco2 A to B [1]: 0.5
DM Caco2 B to A [1]: 7.54

CC1(OC(=O)OC[C@H]2O[C@@](C#N)(c3ccc4c(N)ncnn34)[C@H](O)[C@@H]2O)CCCCCC1 [Compound 55, ((2R,3S,4R,5R)-5-(4-aminopyrrolo[2,1-f][1,2,4]triazin-7-yl)-5-cyano-3,4-dihydroxytetrahydrofuran-2-yl)methyl (1-methylcycloheptyl) carbonate]
EC50 [2]: 2.9 µM
EC50 [3]: 1.34 µM
CC50 [4]: > 50 µM
half-life at 2 µM [5]: 35.8 s
STA Human Plasma 37 (Plasma stability): 75.665
DM Caco2 A to B [1]: 0.38
DM Caco2 B to A [1]: 1.89

CC1(OC(=O)OC[C@H]2O[C@@](C#N)(c3ccc4c(N)ncnn34)[C@H](O)[C@@H]2O)CCCCCCC1 [Compound 57, ((2R,3S,4R,5R)-5-(4-aminopyrrolo[2,1-f][1,2,4]triazin-7-yl)-5-cyano-3,4-dihydroxytetrahydrofuran-2-yl)methyl (1-methylcyclooctyl) carbonate]
EC50 [2]: 2.29 µM
EC50 [3]: 2.45 µM
CC50 [4]: > 50 µM
STA Human Plasma 37 (Plasma stability): 317.5

C=CCOC(=O)OC[C@H]1O[C@@](C#N)(c2ccc3c(N)ncnn23)[C@H](O)[C@@H]1O [Compound 64, Ally (((2R,3S,4R,5R)-5-(4-aminopyrrolo[2,1-f][1,2,4]triazin-7-yl)-5-cyano-3,4-dihydroxytetrahydrofuran-2-yl)methyl) carbonate]
EC50 [2]: 4.21 µM
EC50 [3]: 2.66 µM
CC50 [4]: > 50 µM
half-life at 2 µM [5]: 59.6 s
STA Human Plasma 37 (Plasma stability): 3
DM Caco2 A to B [1]: 0.39
DM Caco2 B to A [1]: 4.6

CC(C)C(C)(C)OC(=O)OC[C@H]1O[C@@](C#N)(c2ccc3c(N)ncnn23)[C@H](O)[C@@H]1O [Compound 68, ((2R,3S,4R,5R)-5-(4-aminopyrrolo[2,1-f][1,2,4]triazin-7-yl)-5-cyano-3,4-dihydroxytetrahydrofuran-2-yl)methyl (2,3-dimethylbutan-2-yl) carbonate]
EC50 [2]: 3.13 µM
EC50 [3]: 1.3 µM
CC50 [4]: > 50 µM
half-life at 2 µM [5]: 2760 s
STA Human Plasma 37 (Plasma stability): 266.43
DM Caco2 A to B [1]: 0.98
DM Caco2 B to A [1]: 7.09

CC1=CCC(OC(=O)OC[C@H]2O[C@@](C#N)(c3ccc4c(N)ncnn34)[C@H](O)[C@@H]2O)(C(C)C)CC1 (stereo partly drawn) [Compound 74, ((2R,3S,4R,5R)-5-(4-aminopyrrolo[2,1-f][1,2,4]triazin-7-yl)-5-cyano-3,4-dihydroxytetrahydrofuran-2-yl)methyl (1-isopropyl-4-methylcyclohex-3-en-1-yl) carbonate]
EC50 [2]: 2.4 µM
EC50 [3]: 0.956 µM
CC50 [4]: > 50 µM
half-life at 2 µM [5]: 1820 s
STA Human Plasma 37 (Plasma stability): 205.11
DM Caco2 A to B [1]: 3.25
DM Caco2 B to A [1]: 9.88

CC(C)(OC(=O)OC[C@H]1O[C@@](C#N)(c2ccc3c(N)ncnn23)[C@H](O)[C@@H]1O)c1ccccn1 [Compound 98, [(2R,3S,4R,5R)-5-(4-aminopyrrolo[2,1-f][1,2,4]triazin-7-yl)-5-cyano-3,4-dihydroxy-tetrahydrofuran-2-yl]methyl [1-methyl-1-(2-pyridyl)ethyl] carbonate]
EC50 [3]: 9 µM
GIS9-HUMAN-NoPMSF T1/2 [5]: 789
STA Human Plasma 37 (Plasma stability): 884.09
DM Caco2 A to B [1]: 0.02
DM Caco2 B to A [1]: 5.65

CC(C)(OC(=O)OC[C@H]1O[C@@](C#N)(c2ccc3c(N)ncnn23)[C@H](O)[C@@H]1O)c1cccnc1 [Compound 99, [(2R,3S,4R,5R)-5-(4-aminopyrrolo[2,1-f][1,2,4]triazin-7-yl)-5-cyano-3,4-dihydroxy-tetrahydrofuran-2-yl]methyl [1-methyl-1-(3-pyridyl)ethyl] carbonate]
EC50 [3]: 3.15 µM
half-life at 2 µM [5]: 5800 s
STA Human Plasma 37 (Plasma stability): 173.49
DM Caco2 A to B [1]: 0.11
DM Caco2 B to A [1]: 2.47

COC(=O)OC[C@H]1O[C@@](C#N)(c2ccc3c(N)ncnn23)[C@@H]2OC(=O)O[C@@H]21 [Compound 127, ((3aR4R,6R,6aR)-6-(4-aminopyrrolo[2,1-f][1,2,4]triazin-7-yl)-6-cyano-2-oxotetrahydrofuro[3,4-d][1,3]dioxol-4-yl)methyl methyl carbonate]
EC50 [2]: 13.7 µM
EC50 [3]: 5.06 µM
CC50 [4]: > 50 µM
half-life at 2 µM [5]: 57.4 s
STA Human Plasma 37 (Plasma stability): 12.071

C=CCCC(=O)O[C@H]1[C@@H](OC(=O)CCC=C)[C@](C#N)(c2ccc3c(N)ncnn23)O[C@@H]1COC(=O)OC(C)C [Compound 134, (2R,3R,4R,5R)-2-(4-aminopyrrolo[2,1-f][1,2,4]triazin-7-yl)-2-cyano-5-(((isopropoxycarbonyl)oxy)methyl)tetrahydrofuran-3,4-diyl bis(pent-4-enoate)]
EC50 [2]: 5.13 µM
EC50 [3]: 1.4 µM
CC50 [4]: > 50 µM
STA Human Plasma 37 (Plasma stability): 65.405

N#C[C@@]1(c2ccc3c(N)ncnn23)O[C@H](CO)[C@@H](O)[C@H]1O [Reference Compound A, (2R,3R,4S,5R)-2-(4-aminopyrrolo[2,1-f][1,2,4]triazin-7-yl)-3,4-dihydroxy-5-(hydroxymethyl)tetrahydrofuran-2-carbonitrile, reference compound]
DM Caco2 A to B [1]: 0.12
DM Caco2 B to A [1]: 1.52
